Measurements reported in patent US10202367B2, “Heterocyclic compounds and methods of use thereof” (priority 2014, dated 2019).

Assay: Aqueous solubility in PBS
Assay type: physicochemical

Which “Sol.” value does the source give for Cc1ccc(C)c(-c2nc(CN3CCC(C(=O)NCCCN4C[C@H](C)C[C@H](C)C4)CC3)c(C)o2)c1 [Compound 34] here?
Its value is 56.1 µg/mL.

With Cc1oc(-c2ccc(Cl)cc2)nc1CN1CCC(C(=O)NCCCN2C[C@H](C)C[C@H](C)C2)CC1 [Compound 16] as the compound, how does the “Sol.” value read?
Its value is >72.0 µg/mL.

Which “Sol.” value does the source give for Cc1ccccc1-c1nc(CN2CCC(C(=O)NCCCN3C[C@H](C)C[C@H](C)C3)CC2)c(C)o1 [Compound 27] here?
Its value is >69.0 µg/mL.

Which “Sol.” value does the source give for Cc1cccc(Cl)c1-c1nc(CN2CCC(C(=O)NCCCN3CCC(C(C)C)CC3)CC2)c(C)o1 [Compound 61] here?
Its value is >76 µg/mL.

For Cc1ccccc1-c1nc(CN2CCC(C(=O)N3CCN(C4CCN(C)CC4)CC3)CC2)c(C)o1 [Compound 13], which “Sol.” value is on record?
The value was >71.0 µg/mL.

Which “Sol.” value does the source give for Cc1cccc(Cl)c1-c1nc(CN2CCC(C(=O)NCCCN3CCCC(C)C3)CC2)c(C)o1 (stereo not drawn) [Compound 59] here?
Its value is 52.6 µg/mL.

With Cc1ccccc1-c1nc(CN2CCC(C(=O)NCCCN3C[C@H](C)C[C@H](C)C3)CC2)c(C)o1 [Compound 28] as the compound, how does the “Sol.” value read?
The value was 54.8 µg/mL.

Which “Sol.” value does the source give for Cc1oc(-c2c(Cl)cccc2C(F)(F)F)nc1CN1CCC(C(=O)NCCCN2C[C@H](C)C[C@H](C)C2)CC1 [Compound 44] here?
The value was 65.1 µg/mL.

With Cc1ccccc1-c1nc(CN2CCC(C(=O)NCCCN3C[C@H](C)C[C@@H](C)C3)CC2)c(C)o1 [Compound 47] as the compound, how does the “Sol.” value read?
Its value is >69.0 µg/mL.

For COc1cccc(Cl)c1-c1nc(CN2CCC(C(=O)NCCCN3C[C@H](C)C[C@H](C)C3)CC2)c(C)o1 [Compound 42], which “Sol.” value is on record?
Its value is >76.0 µg/mL.

Which “Sol.” value does the source give for Cc1ccccc1-c1nc(CN2CCC(C(=O)NCCCN3C[C@H](C)C[C@H](C)C3)CC2)c(C)o1 [Compound 29] here?
The value was >69.0 µg/mL.

For Cc1ccccc1-c1nc(CN2CCC(C(=O)NCCCN3C[C@H](C)C[C@H](C)C3)CC2)c(C)o1 [Compound 26], which “Sol.” value is on record?
The value was >69.0 µg/mL.

With COc1cccc(C)c1-c1nc(CN2CCC(C(=O)NCCCN3C[C@H](C)C[C@H](C)C3)CC2)c(C)o1 [Compound 45] as the compound, how does the “Sol.” value read?
Its value is >73.0 µg/mL.

Which “Sol.” value does the source give for Cc1ccc2ccccc2c1-c1nc(CN2CCC(C(=O)NCCCN3C[C@H](C)C[C@H](C)C3)CC2)c(C)o1 [Compound 39] here?
Its value is >76.0 µg/mL.

Which “Sol.” value does the source give for Cc1ccccc1-c1nc(CN2CCC(C(=O)NCCCCN3C[C@H](C)C[C@H](C)C3)CC2)c(C)o1 [Compound 21] here?
Its value is >71.0 µg/mL.

Which “Sol.” value does the source give for Cc1oc(-c2c(F)cccc2Cl)nc1CN1CCC(C(=O)NCCCN2C[C@H](C)C[C@H](C)C2)CC1 [Compound 33] here?
Its value is >75.0 µg/mL.

With Cc1cccc(F)c1-c1nc(CN2CCC(C(=O)NCCCN3C[C@H](C)C[C@H](C)C3)CC2)c(C)o1 [Compound 46] as the compound, how does the “Sol.” value read?
Its value is >72.0 µg/mL.

For Cc1oc(-c2c3ccccc3cc3ccccc23)nc1CN1CCC(C(=O)NCCCN2C[C@H](C)C[C@H](C)C2)CC1 [Compound 36], which “Sol.” value is on record?
Its value is 62.1 µg/mL.

For COc1cccc(F)c1-c1nc(CN2CCC(C(=O)NCCCN3C[C@H](C)C[C@H](C)C3)CC2)c(C)o1 [Compound 38], which “Sol.” value is on record?
The value was >74.0 µg/mL.

For Cc1ccccc1-c1nc(CN2CCC(C(=O)NCCCN3[C@H](C)CCC[C@@H]3C)CC2)c(C)o1 [Compound 51], which “Sol.” value is on record?
Its value is >69.0 µg/mL.

Which “Sol.” value does the source give for Cc1ccc(-c2nc(CN3CCC(C(=O)NCCCN4C[C@H](C)C[C@H](C)C4)CC3)c(C)o2)cc1C [Compound 22] here?
Its value is >71.0 µg/mL.

Which “Sol.” value does the source give for Cc1cccc(-c2nc(CN3CCC(C(=O)NCCCN4C[C@H](C)C[C@H](C)C4)CC3)c(C)o2)c1 [Compound 18] here?
The value was >69.0 µg/mL.

For Cc1ccc(-c2nc(CN3CCC(C(=O)NCCCN4C[C@H](C)C[C@H](C)C4)CC3)c(C)o2)cc1 [Compound 19], which “Sol.” value is on record?
Its value is >69.0 µg/mL.

With Cc1ccccc1-c1nc(CN2CCC(C(=O)NCCCN3C[C@H](C)C[C@H](C)C3)CC2)c(C)o1 [Compound 25] as the compound, how does the “Sol.” value read?
Its value is >69.0 µg/mL.

With Cc1ccccc1-c1nc(CN2CCC(C(=O)NCCCN3CCCCC3)CC2)c(C)o1 [Compound 9] as the compound, how does the “Sol.” value read?
Its value is >65.0 µg/mL.

For Cc1oc(-c2cccc3ccccc23)nc1CN1CCC(C(=O)NCCCN2C[C@H](C)C[C@H](C)C2)CC1 [Compound 31], which “Sol.” value is on record?
Its value is >74.0 µg/mL.

With Cc1ccccc1-c1nc(CN2CCC(C(=O)NCCCN3C[C@H](C)C[C@H](C)C3)CC2)c(C)o1 [Compound 63] as the compound, how does the “Sol.” value read?
Its value is 54.8 µg/mL.
